Where “and” joins values, the source holds several entries; their conditions need not be identical. Identical values can stand only once.
Experiments:
[1] = test system: Calreticulin cells in tumor-infiltrating lymphocytes; assay: Example 2: flow cytometry, percentage of Calreticulin cells in TILs; format: in vivo, Mus musculus; conditions: G3: OBI-3424 1 mg/kg, TILs from tumor, individual mice and group Mean, 1 mg/kg
Protocol: (§1) Mice were sacrificed by CO2 euthanasia at the end of the study duration, and the connective tissue around tumor was resected. The tumor samples were then weighed and cut equally into three sections if the tumor weight over 400 mg. The tumor tissue was prepared for the isolation of tumor-infiltrating lymphocytes (TILs). The rest of one section was fixed in 10% formaldehyde and embedded in paraffin; the other was stored at a temperature below −70° C.
The tumor samples were dissected into smaller fragments using scalpels and then digested with a cocktail of collagenase, DNase I, and Hyaluronidase (Collagenase #C5138, DNase I #D5025, Hyaluronidase #H6254, SigmaAldrich) for at least 2 hours.
Cells were stained with the fluorescently conjugated surface antibodies and incubated for 30 minutes at 4° C., and then resuspended in staining buffer for flow cytometric analysis. Flow cytometry was done using a Navios EX Flow Cytometer (Beckman Coulter). Data were analyzed using the Kaluza Analysis Software (Beckman Coulter).

[2] = test system: HepG2 tumor; assay: Example 2: tumor volume, tumor weight and TGI in HepG2 tumor bearing humanized mice; format: in vivo, Mus musculus; conditions: for mean tumor volume: mean±SEM; for tumor growth inhibition (TGI): Day 30 vs Day 0, alone or with anti-hPD-1 20 mg/kg
Protocol: 1. Species: Mus musculus • Strain: Advanced immunodeficiency mouse. • (NOD.CgPrkdc^scid Il2rg) • Source: Trineo Biotechnology Co., LTD.
Each group contains six mice. The human hepatocellular carcinoma cell line HepG2 were subcutaneously inoculated to the advanced immune-deficiency mice. Total of 42 mice were included in this study.
2.2. […] The subcutaneous injection volume was […].
3.1. […] The injection was performed using insulin syringe with the dosage of 0.3 mg/kg or 1 mg/kg and the injection volume was 5 mL/kg. […] The reference item was administered for G1. The procedure followed the standards of sample administration. The starting day of test item administration was denoted as the first experimental day (DO).
3.2. […] The injection was performed using insulin syringe with the dosage of 20 mg/kg and injection volume of 10 mL/kg. […] The procedure followed the standards of sample administration.
The measurement was performed from the next day of the inoculation. The tumor volumes were measured and recorded twice a week (Mon., Thur.). Tumor volume was calculated by ellipsoid equation according to the records ((major axis×minor axis×minor axis)×(π/6)).
Tumor volumes were used to calculate tumor growth inhibition (TGI) rates according to the following formula: TGI (%)=[1−(Ti−T0)/(Ci−C0)]×100, where Ti and Ci indicate the mean tumor volume in the treatment groups and vehicle group at the end of the experiment (Day 30). Whereas, T0 and C0 indicate the mean tumor volumes in the treatment group and vehicle group at the beginning of the experiment (Day 0).
as §1

[3] = G2 OBI-3424 (0.3 mg/kg), D30, group Mean
[4] = G2 OBI-3424 (0.3 mg/kg), D30, individual animals, 0.3 mg/kg
[5] = G3 OBI-3424 (1 mg/kg), D30, individual animals, 1 mg/kg

C[C@H](OP(=O)(N1CC1)N1CC1)c1ccc([N+](=O)[O-])c(Oc2cccc(C(=O)N(C)C)c2)c1 [OBI-3424, (S)-1-(3-(3-N,N-dimethylaminocarbonyl)phenoxyl-4-mtrophenyl)-1-ethyl-N,N′-bis(ethylene)phosphoramidate]
Total CD45^− cells (CD45^−) CD45^+ Gated % [1]: 9.67% and 13.99% and 19.95% and 13.15% and 12.84% and 12.22%
Total CD45^− cells (CD45^−) Total % [1]: 8.45% and 12.06% and 16.62% and 11.79% and 11.27% and 11.04%
CD45^− live cells (CD45^−ViaKrome405^weak) CTL Gated % ([1]; group mean): 69.37%
CD45^− live cells (CD45^−ViaKrome405^weak) Total % ([1]; group mean): 8.21%
Calreticulin cells (CD45^− Calreticulin^+) CTL Gated % ([1]; group mean): 4.15%
Calreticulin cells (CD45^− Calreticulin^+) Total % ([1]; group mean): 0.38%
Total CD45^− cells (CD45^−) CD45^+ Gated % ([1]; group mean): 13.64%
Total CD45^− cells (CD45^−) Total % ([1]; group mean): 11.87%
dose relation of reduction in mean tumor volume (in words) ([2]; Example 2, D30, OBI-3424 0.3 mg/kg and 1 mg/kg): dose-related reduction
mean tumor volume ([2]; Example 2, D30, OBI-3424 0.3 mg/kg IV, alone (G2) or with anti-hPD-1 20 mg/kg IP (G5)): 716.44±31.12 mm^3
mean tumor volume ([2]; Example 2, D30, OBI-3424 1 mg/kg IV, alone (G3) or with anti-hPD-1 20 mg/kg IP (G6)): 216.90±22.20 mm^3
mean tumor volume compared with vehicle (in words) ([2]; Example 2, D30, vs vehicle (G1), OBI-3424 high-dose 1 mg/kg (G3), anti-hPD-1 20 mg/kg (G4), combinations G5-G7): significantly suppressed
tumor weight compared with vehicle (in words) ([2]; Example 2, Day 30, OBI-3424 low-dose (G2), high-dose (G3), combinations G5-G7 vs vehicle (G1)): significantly suppressed
tumor growth inhibition (TGI) ([2]; Example 2, high-dose OBI-3424 (1 mg/kg)): 113.27%
tumor growth inhibition (TGI) ([2]; Example 2, low-dose OBI-3424 (0.3 mg/kg)): 27.82%
anti-tumor effect (conclusion in words) ([2]; Example 2, HepG2 humanized mouse model, combination: high-dose OBI-3424): dose-dependent trend with anti-tumor activity
TGI ([2]; G2 OBI-3424 (0.3 mg/kg)): 27.82%
Tumor volume ([2]; G2 OBI-3424 (0.3 mg/kg), D0, group Mean): 293.3 mm^3
Tumor volume ([2]; G2 OBI-3424 (0.3 mg/kg), D0, individual animals, 0.3 mg/kg): 280.0 mm^3 and 279.4 mm^3 and 226.0 mm^3 and 353.6 mm^3 and 317.7 mm^3 and 303.0 mm^3
Tumor volume ([2]; G2 OBI-3424 (0.3 mg/kg), D2, group Mean): 300.8 mm^3
Tumor volume ([2]; G2 OBI-3424 (0.3 mg/kg), D2, individual animals, 0.3 mg/kg): 283.9 mm^3 and 281.1 mm^3 and 230.6 mm^3 and 354.0 mm^3 and 321.0 mm^3 and 334.4 mm^3
Tumor volume ([2]; G2 OBI-3424 (0.3 mg/kg), D6, group Mean): 307.8 mm^3
Tumor volume ([2]; G2 OBI-3424 (0.3 mg/kg), D6, individual animals, 0.3 mg/kg): 289.0 mm^3 and 293.9 mm^3 and 241.0 mm^3 and 356.0 mm^3 and 330.5 mm^3 and 336.3 mm^3
Tumor volume ([2]; G2 OBI-3424 (0.3 mg/kg), D9, group Mean): 388.7 mm^3
Tumor volume ([2]; G2 OBI-3424 (0.3 mg/kg), D9, individual animals, 0.3 mg/kg): 375.6 mm^3 and 367.0 mm^3 and 395.2 mm^3 and 367.9 mm^3 and 388.9 mm^3 and 437.7 mm^3
Tumor volume ([2]; G2 OBI-3424 (0.3 mg/kg), D13, group Mean): 509.0 mm^3
Tumor volume ([2]; G2 OBI-3424 (0.3 mg/kg), D13, individual animals, 0.3 mg/kg): 569.5 mm^3 and 452.6 mm^3 and 528.9 mm^3 and 388.3 mm^3 and 590.7 mm^3 and 524.2 mm^3
Tumor volume ([2]; G2 OBI-3424 (0.3 mg/kg), D16, group Mean): 617.1 mm^3
Tumor volume ([2]; G2 OBI-3424 (0.3 mg/kg), D16, individual animals, 0.3 mg/kg): 714.1 mm^3 and 528.0 mm^3 and 714.4 mm^3 and 405.8 mm^3 and 749.1 mm^3 and 591.5 mm^3
Tumor volume ([2]; G2 OBI-3424 (0.3 mg/kg), D20, group Mean): 702.3 mm^3
Tumor volume ([2]; G2 OBI-3424 (0.3 mg/kg), D20, individual animals, 0.3 mg/kg): 808.4 mm^3 and 658.4 mm^3 and 854.0 mm^3 and 419.5 mm^3 and 751.9 mm^3 and 721.3 mm^3
Tumor volume ([2]; G2 OBI-3424 (0.3 mg/kg), D23, group Mean): 744.1 mm^3
Tumor volume ([2]; G2 OBI-3424 (0.3 mg/kg), D23, individual animals, 0.3 mg/kg): 889.2 mm^3 and 661.3 mm^3 and 890.1 mm^3 and 297.5 mm^3 and 842.6 mm^3 and 884.2 mm^3
Tumor volume ([2]; G2 OBI-3424 (0.3 mg/kg), D27, group Mean): 717.3 mm^3
Tumor volume ([2]; G2 OBI-3424 (0.3 mg/kg), D27, individual animals, 0.3 mg/kg): 926.9 mm^3 and 527.6 mm^3 and 909.1 mm^3 and 205.1 mm^3 and 848.5 mm^3 and 886.5 mm^3
Tumor volume [2, 3]: 716.4 mm^3
Tumor weight [2, 3]: 304.45 mg
Tumor volume [2, 4]: 1012. mm^3 and 468.2 mm^3 and 882.8 mm^3 and 181.5 mm^3 and 850.4 mm^3 and 903.5 mm^3
Tumor weight [2, 4]: 445.50 mg and 223.90 mg and 327.90 mg and 63.40 mg and 449.00 mg and 317.00 mg
TGI ([2]; G3 OBI-3424 (1 mg/kg)): 113.27%
Tumor volume ([2]; G3 OBI-3424 (1 mg/kg), D0, individual animals, 1 mg/kg): 290.8 mm^3 and 318.0 mm^3 and 286.8 mm^3
Tumor volume ([2]; G3 OBI-3424 (1 mg/kg), D2, individual animals, 1 mg/kg): 295.5 mm^3 and 322.4 mm^3 and 292.9 mm^3
Tumor volume ([2]; G3 OBI-3424 (1 mg/kg), D6, individual animals, 1 mg/kg): 297.0 mm^3 and 328.4 mm^3 and 304.4 mm^3
Tumor volume ([2]; G3 OBI-3424 (1 mg/kg), D9, individual animals, 1 mg/kg): 337.5 mm^3 and 468.5 mm^3 and 334.0 mm^3
Tumor volume ([2]; G3 OBI-3424 (1 mg/kg), D13, individual animals, 1 mg/kg): 341.3 mm^3 and 492.3 mm^3 and 362.5 mm^3
Tumor volume ([2]; G3 OBI-3424 (1 mg/kg), D16, individual animals, 1 mg/kg): 359.9 mm^3 and 556.8 mm^3 and 465.2 mm^3
Tumor volume ([2]; G3 OBI-3424 (1 mg/kg), D20, individual animals, 1 mg/kg): 345.0 mm^3 and 552.1 mm^3 and 465.2 mm^3
Tumor volume ([2]; G3 OBI-3424 (1 mg/kg), D23, individual animals, 1 mg/kg): 260.7 mm^3 and 544.3 mm^3 and 419.2 mm^3
Tumor volume ([2]; G3 OBI-3424 (1 mg/kg), D27, individual animals, 1 mg/kg): 246.4 mm^3 and 426.0 mm^3 and 295.9 mm^3
Tumor weight ([2]; G3 OBI-3424 (1 mg/kg), D30, group Mean): 84.40 mg
Tumor volume [2, 5]: 185.2 mm^3 and 295.5 mm^3 and 215.0 mm^3
Tumor weight [2, 5]: 62.40 mg and 101.90 mg and 105.20 mg and 90.30 mg and 69.80 mg and 76.80 mg
